Test results: article PMC4900566, “Pharmacokinetic-Pharmacodynamic Analysis on Inflammation Rat Model after Oral Administration of Huang Lian Jie Du Decoction” (PLoS ONE, 2016)
Read-outs that look alike come from different tables or passages of the source.

Key:
[1] = Hepatic first-pass effect / hepatic clearance rate (jugular vs pyloric vein AUC0-t) in inflamed rats; assay type: in vivo, Sprague-Dawley rats; settings: inflamed rats (G5, n = 5), oral HLJDD; HCR% = 100×(AUC0−t pyloric vein − AUC0−t jugular vein)/AUC0−t pyloric vein
Method: (§1) For the PK-PD analysis, cannulas were implanted in each rat’s jugular vein (n = 22). To study the hepatic first-pass effect (HFPE), the jugular vein and the pyloric vein of each rat (n = 5) were cannulated according to the method described by Hye J. Chung et al. with slight modifications. Instead of the portal vein, the pyloric vein was cannulated to minimize the interference of blood flow in the portal vein [41]. The surgery was performed under anesthesia (3% chloral hydrate solution, intraperitoneal injection; 3.5 mL/kg) 5 days prior to the experiment. Rats with jugular vein intubation surgery were divided into four groups: a control group with HLJDD (G1, n = 6), aninflammatory group with HLJDD (G2, n = 6), aninflammatory group with physiological saline (G3, n = 5) and another inflammatory group with HLJDD (G4, n = 5). G1 and G2 were used for the pharmacokinetic study, while G3 and G4 were used for the pharmacodynamic study. Rats with jugular and pyloric vein cannulation for HFPE analysis were assigned to another inflammatory group with HLJDD (G5, n = 5).
The prepared HLJDD-EP solution was administered to the rats (G1, G2, G4 and G5) at 2 mL/100g body weight (crude material content: 3.5 g/kg) by oral gavage, and the G3 group was given the same volume of physiological saline. In the G1 and G2 groups, blood specimens (300 μL) were obtained before dosing and subsequently at 5 min, 10 min, 30 min, 1, 2, 4, 6, 8, 12, 24, 36 and 48 h after the oral administration of HLJDD-EP solution. In the G3 and G4 groups, blood samples (300 μL) were collected prior to dosing and followed at 10 min, 30 min, 1, 2, 4, 8, 24 and 48 h after drug administration. The rectal temperature of rats in the G3 and G4 groups was immediately monitored after each collection of blood. For the HFPE assay, blood specimens (150 μL) from both the jugular vein and the pyloric vein of the G5 rats were simultaneously taken before dosing and subsequently at 5 min, 10 min, 30 min, 1, 2, 4, 6, 8, 12, 24, 36 and 48 h after oral administration. Samples were collected in heparinized Eppendorf tubes and centrifuged at 3000 rpm for 15 min. The plasma was stored at -80°C until assay.
For the pharmacokinetic investigation and HFPE analysis, 100 μL aliquots of plasma were mixed with 5 μL of ascorbic acid (dissolved in physiological saline, w/v: 1 g/100 mL) and 200 μL of methanol (containing an internal standard stock solution with 80.0 ng/mL swertiamarin, 1.5 ng/mL corynoline and 33.0 ng/mL icariin), followed by vortexing and centrifuging at 15000 rpm for 20 min to remove the precipitate. The supernatant was dried with nitrogen at 40°C. […] The supernatant was analyzed using Agilent 1290 ultra-high performance liquid chromatography coupled with an Agilent 6490 Triple Quadrupole Mass Spectrometer (Agilent Technologies, Palo Alto, CA, USA).
Pharmacokinetic parameters of the determined compounds were processed by the non-compartmental method using Phoenix Winnonlin software (Pharsight Corporation, USA). […] The mean residence time (MRT) was determined as AUMC/AUC. The plasma half-life (HLλz), maximum plasma concentration (Cmax), the time to reach Cmax (Tmax) and other parameters following the administration of HLJDD were determined from the observed data. […] Concentrations of cytokines were analyzed by cytometric bead array software (FCAP Array version 3.0, BD Bioscience). All the data were expressed as the mean±standard deviation (SD). […]

[2] = Pharmacokinetics of HLJDD components in rat plasma after oral administration of HLJDD (LC-QqQ-MS, non-compartmental); assay type: in vivo, Sprague-Dawley rats; settings: oral HLJDD extract; for AUC%Extrap / AUMClast / Cmax1 / Cmax2 / HLλz / Tmax1 / Tmax2 / AUC(0-inf) / AUC(0-t) / MRT last / CL/F / Vd/F / AUCinf / AUClast / MRTlast / Vz/F: crude material 3.5 g/kg, plasma, n = 6; for mean AUClast, fold larger in the inflamed group than in the control group: inflamed vs normal rats; for Vd/F: read-out: Vz/F
Method: The rats were acclimatized to the facilities for 5 days and screened via the continuous determination of the rectal temperature for two days. […] The control group G1 was injected with the same volume of physiological saline. The ethics committees of Cisco North Biotechnology Co., Ltd. (Beijing, China) and the China Academy of Chinese Medical Sciences (Beijing, China) approved the experimental protocol.
as §1
The prepared HLJDD-EP solution was administered to the rats (G1, G2, G4 and G5) at 2 mL/100g body weight (crude material content: 3.5 g/kg) by oral gavage, and the G3 group was given the same volume of physiological saline. […] The rectal temperature of rats in the G3 and G4 groups was immediately monitored after each collection of blood. […] Samples were collected in heparinized Eppendorf tubes and centrifuged at 3000 rpm for 15 min. The plasma was stored at -80°C until assay.
The supernatant was dried with nitrogen at 40°C. The residue was re-dissolved in 100 μL of methanol and centrifuged at 15000 rpm for 10 min.
Liquid chromatographic separations of the analytes were performed using a Thermo Scientific Hypersil GOLD column (50 mm× 2.1 mm, 1.9 μm). The mobile phase consisted of acetonitrile (solvent A) and 0.1% formic acid in water (solvent B). […] The flow rate was 0.3 mL/min. The injection volume was 2 μL. […] The optimized ESI source parameters were as follows: gas temperature, 200°C; gas flow, 14 L/min; nebulizer pressure, 20 psi; sheath gas temperature, 400°C; and sheath gas flow, 11 L/min. Analytes were quantitated by monitoring the precursor-product combination in the DMRM mode using ion polarity switching (flavonoids and alkaloids were determined in the positive mode, while iridoids were detected in the negative mode). To ensure the desired abundance of each compound, the CE values and other parameters were optimized and illustrated as follows: cycle time, 300 ms; positive capillary voltage, 3000 v; negative capillary voltage, 2000 v; positive nozzle voltage, 1500 v; negative nozzle voltage, 1000 v; Delta EMV(+), 200 v; Delta EMV(-), 200 v. The optimized mass transition ion pairs (m/z) for analytes and the detection of the conditions of the compounds are shown in S1 Table.
Pharmacokinetic parameters of the determined compounds were processed by the non-compartmental method using Phoenix Winnonlin software (Pharsight Corporation, USA). Linear trapezoidal integration was used to calculate areas under the concentration-time curves (AUC) and areas under the first moment curves (AUMC). The mean residence time (MRT) was determined as AUMC/AUC. The plasma half-life (HLλz), maximum plasma concentration (Cmax), the time to reach Cmax (Tmax) and other parameters following the administration of HLJDD were determined from the observed data. The HFPE was defined as HCR: HCR% = 100×(AUC0−t in the pyloric vein-AUC0−t in the jugular vein)/AUC0−t in the pyloric vein.

[3] = male, Sprague-Dawley, rat, po, 3.5 g/kg, inflamed rats (group M)
[4] = male, Sprague-Dawley, rat, po, 3.5 g/kg, normal rats (group B)

hepatic clearance rate (HCR) [1]	AUC%Extrap ([2]; inflamed rats (group M)) [%]	AUMClast ([2]; inflamed rats (group M)) [h*h*ng/ml]	Cmax1 ([2]; inflamed rats (group M)) [ng/mL]	Cmax2 ([2]; inflamed rats (group M)) [ng/mL]	HLλz ([2]; inflamed rats (group M)) [h]	Tmax1 ([2]; inflamed rats (group M)) [h]	Tmax2 ([2]; inflamed rats (group M)) [h]	mean AUClast, fold larger in the inflamed group than in the control group [2] [fold]	AUC%Extrap ([2]; normal rats (group B)) [%]	AUMClast ([2]; normal rats (group B)) [h*h*ng/ml]	Cmax1 ([2]; normal rats (group B)) [ng/mL]	Cmax2 ([2]; normal rats (group B)) [ng/mL]	HLλz ([2]; normal rats (group B)) [h]	Tmax1 ([2]; normal rats (group B)) [h]	Tmax2 ([2]; normal rats (group B)) [h]	SMILES	other results
-43.7%																COC(=O)C1=CO[C@@H](O[C@@H]2O[C@H](CO)[C@@H](O)[C@H](O)[C@H]2O)[C@H]2[C@@H]1C=C[C@@]2(O)CO [I1, gardenoside]	
approximately zero																COc1cc(O[C@@H]2O[C@H](C(=O)O)[C@@H](O)[C@H](O)[C@H]2O)c2c(=O)cc(-c3ccccc3)oc2c1O[C@@H]1O[C@H](C(=O)O)[C@@H](O)[C@H](O)[C@H]1O [F4, 5,8-dihyroxy-7-methoxy flavone-5,8-di-O-glucuronide]	
approximately zero																COC(=O)C1=CO[C@@H](O[C@@H]2O[C@H](CO)[C@@H](O)[C@H](O)[C@H]2O)[C@@H]2C(CO)=C[C@@H](O)[C@H]12 [I2, scandoside methyl ester]	
approximately zero																COc1cc(O)c2c(=O)cc(-c3ccccc3)oc2c1O[C@@H]1O[C@H](C(=O)O)[C@@H](O)[C@H](O)[C@H]1O [F7, 5,8-dihyroxy-7-methoxy flavone-8-O-glucuronide]	
-156.6%																COC(=O)C1=CO[C@@H](O[C@@H]2O[C@H](CO[C@@H]3O[C@H](CO)[C@@H](O)[C@H](O)[C@H]3O)[C@@H](O)[C@H](O)[C@H]2O)[C@@H]2C(CO)=CC[C@H]12 [I3, genipin-1-gentiobioside]	
	1.3±0.7	442.5±232.9	3.3 ± 0.7	4.3 ± 1.8	7.1 ± 2.7	0.08 ± 0.0	7.3 ± 2.7	5.4	2.7±2.3	31.8±14.3	2.2 ± 1.2	1.6 ± 0.7	3.5 ± 1.3	0.09 ± 0.03	4.0 ± 0.0	COc1c(O)cc(O)c2c(=O)cc(-c3ccccc3)oc12 [wogonin]	AUC(0-inf) [2, 3]: 39.2 ± 8 ng·h/mL; AUC(0-t) [2, 3]: 38.7 ± 8.1 ng·h/mL; MRT last [2, 3]: 11 ± 3.5 h; CL/F ([2]; male, Sprague-Dawley, rat, po, 3.5 g/kg, inflamed rats (group M), read-out: CL/F (converted)): 2740 mL/min/kg; Vd/F [2, 3]: 1710 ± 667 L/kg; AUC(0-inf) [2, 4]: 7.4 ± 2.6 ng·h/mL; AUC(0-t) [2, 4]: 7.2 ± 2.6 ng·h/mL; MRT last [2, 4]: 4.3 ± 0.8 h; Vd/F [2, 4]: 4010 ± 1350 L/kg
	46.2±12.3	18194.0±6706.5	108.7 ± 47.6	65.5 ± 18.2	20.1 ± 6.1	0.09 ± 0.03	9.6 ± 2.2		10.3±6.8	1935.2±487.3	106.9 ± 43.8	85.8 ± 40.3	3.2 ± 0.9	0.09 ± 0.03	4.0 ± 0.0	COc1c(O[C@@H]2O[C@H](C(=O)O)[C@@H](O)[C@H](O)[C@H]2O)cc2oc(-c3ccccc3)cc(=O)c2c1O [oroxylin A-7-O-glucuronide]	AUCinf ([2]; inflamed rats (group M)): 2157.4 ± 785.0 ng·h/mL; AUClast ([2]; inflamed rats (group M)): 1209.8 ± 606.4 ng·h/mL; CL/F ([2]; inflamed rats (group M)): 202 ± 70 mL/min/kg; MRTlast ([2]; inflamed rats (group M)): 12.5 ± 2.3 h; Vz/F ([2]; inflamed rats (group M)): 322.4 ± 22.0 L/kg; AUCinf ([2]; normal rats (group B)): 486.8 ± 96.9 ng·h/mL; AUClast ([2]; normal rats (group B)): 440.7 ± 106.9 ng·h/mL; CL/F ([2]; normal rats (group B)): 845 ± 225 mL/min/kg; MRTlast ([2]; normal rats (group B)): 4.4 ± 0.5 h; Vz/F ([2]; normal rats (group B)): 247.8 ± 140.4 L/kg
	10.7±7.0	22.6±8.6	0.5 ± 0.2	0.3 ± 0.3	9.1 ± 2.5	1.0 ± 0.6	10.8 ± 2.7	2.1	25.9±15.5	8.9±8.6	0.4 ± 0.1	0.1 ± 0.03	6.3 ± 3.5	0.6 ± 0.4	8.0 ± 2.2	COc1ccc2cc3[n+](cc2c1OC)CCc1cc2c(cc1-3)OCO2 [berberine]	AUC(0-inf) [2, 3]: 3.4 ± 0.7 ng·h/mL; AUC(0-t) [2, 3]: 2.7 ± 0.8 ng·h/mL; MRT last [2, 3]: 8.4 ± 3.1 h; AUC(0-inf) [2, 4]: 1.8 ± 0.6 ng·h/mL; AUC(0-t) [2, 4]: 1.3 ± 0.5 ng·h/mL; MRT last [2, 4]: 5.7 ± 3.5 h

SMILES	hepatic clearance rate (HCR) [1]	AUC%Extrap ([2]; inflamed rats (group M)) [%]	AUMClast ([2]; inflamed rats (group M)) [h*h*ng/ml]	Cmax1 ([2]; inflamed rats (group M)) [ng/mL]	Cmax2 ([2]; inflamed rats (group M)) [ng/mL]	HLλz ([2]; inflamed rats (group M)) [h]	Tmax1 ([2]; inflamed rats (group M)) [h]	Tmax2 ([2]; inflamed rats (group M)) [h]	mean AUClast, fold larger in the inflamed group than in the control group [2] [fold]	AUC%Extrap ([2]; normal rats (group B)) [%]	AUMClast ([2]; normal rats (group B)) [h*h*ng/ml]	Cmax1 ([2]; normal rats (group B)) [ng/mL]	Cmax2 ([2]; normal rats (group B)) [ng/mL]	HLλz ([2]; normal rats (group B)) [h]	Tmax1 ([2]; normal rats (group B)) [h]	Tmax2 ([2]; normal rats (group B)) [h]	other results
COc1ccc2c(c1O)-c1c(O)c(OC)cc3c1[C@H](C2)[N+](C)(C)CC3 [magnolflorine]		17.6±8.0	97.9±55.4	6.0 ± 1.7		4.3 ± 2.2	0.6 ± 0.3		1.6	6.2±2.4	29.5±5.8	6.5 ± 1.1		1.6 ± 0.4	0.6 ± 0.2		AUCinf ([2]; inflamed rats (group M)): 29.3 ± 13.8 ng·h/mL; AUClast ([2]; inflamed rats (group M)): 24.9 ± 14.6 ng·h/mL; MRTlast ([2]; inflamed rats (group M)): 4.1 ± 1.9 h; Vz/F ([2]; inflamed rats (group M)): 607.8 ± 396.5 L/kg; AUCinf ([2]; normal rats (group B)): 17.0 ± 2.0 ng·h/mL; AUClast ([2]; normal rats (group B)): 16.0 ± 2.0 ng·h/mL; CL/F ([2]; normal rats (group B)): 2377 ± 265 mL/min/kg; MRTlast ([2]; normal rats (group B)): 1.8 ± 0.1 h; Vz/F ([2]; normal rats (group B)): 339.5 ± 97.3 L/kg
